Activity data for 3 compounds are collected here from ChEMBL document CHEMBL1157653, “Gentisides A and B, two new neuritogenic compounds from the traditional Chinese medicine Gentiana rigescens Franch” (Bioorg Med Chem, 2010).

Series [1] has as its system PC-12. The experiment in a line: Induction of neuritogenic activity in rat PC12 cells assessed as long neurite outgrowths at 1 to 30 uM after 48 hrs. The format is functional, cell-based.
The subject of series [2] is PC-12. The experiment in a line: Induction of neuritogenic activity in rat PC12 cells assessed as long neurite outgrowths after 48 hrs. Format: functional, cell-based.
Series [3] has as its system PC-12. The experiment in a line: Cytotoxicity against rat PC12 cells at 1 to 30 uM after 48 hrs. The conditions noted are these: pc-12, 48 h. Format: cell-based.
The test system of series [4] is PC-12. The experiment in a line: Induction of neuritogenic activity in rat PC12 cells assessed as long neurite outgrowths at 30 uM after 48 hrs. The format is functional.
Series [5] deals with PC-12. The series is described as follows: Cytotoxicity against rat PC12 cells at 100 uM after 48 hrs. The format is cell-based. The conditions noted are these: pc-12, 48 h.
The test system of series [6] is PC-12. The experiment in a line: Induction of neuritogenic activity in rat PC12 cells assessed as long neurite outgrowths at 100 uM after 48 hrs. The format is functional, cell-based.
For series [7], the system named is PC-12. The experiment in a line: Potentiation of NGF-induced neuritogenic activity in rat PC12 cells assessed as neurite outgrowths at 1 to 30 uM after 48 hrs. Format: functional, cell-based.
For series [8], the system named is PC-12. The experiment in a line: Induction of neuritogenic activity in rat PC12 cells assessed as appearance of long multipolar and bipolar neurite outgrowths at 30 uM after 48 hrs by phase contrast microscopy. Format: functional, cell-based.

Active and inactive are the calls of the source. No cut-off for these calls is given here.

Consider `O=C(O)c1cccc(O)c1O`, for which, in the series on PC-12 [1], the outcome was inactive.
As for `CC(C)CCCCCCCCCCCCCCCCCCCOC(=O)c1cccc(O)c1O` [GENTISIDE A], the Activity result in the series on PC-12 [2] is “Dose-dependent effect”; with PC-12 [3] it was “Non-toxic”; in the series on PC-12 [4] it was 82%; with PC-12 [5], “Toxic”. The outcome in the series with PC-12 [6] and in the series on PC-12 [8] was Active. For the same compound, the result with PC-12 [7] was inactive.
On to `CC[C@H](C)CCCCCCCCCCCCCCCCCCCOC(=O)c1cccc(O)c1O` [GENTISIDE B], for which the Activity result in the series with PC-12 [2] was “Dose-dependent effect”; with PC-12 [3], “Non-toxic”; in the series on PC-12 [4], 87%; with PC-12 [5], “Toxic”. The outcome with PC-12 [6] and in the series with PC-12 [8] was Active. For the same compound, the outcome in the series on PC-12 [7] was inactive.
